{"source": "paper PMC8058733", "about": "“A pain killer without analgesic tolerance designed by co-targeting PSD-95-nNOS interaction and α2-containning GABAARs” (Theranostics, 2021)", "key": {"[1]": {"molecular_target": "T1, α1β2γ2 GABAARs (Homo sapiens, UniProt P14867+P18507+P47870)", "T1 construct": "Shanghai Genechem Co.,Ltd (γ2 plasmid); host or cells: HEK293", "T1 sequence (P14867 28-456)": "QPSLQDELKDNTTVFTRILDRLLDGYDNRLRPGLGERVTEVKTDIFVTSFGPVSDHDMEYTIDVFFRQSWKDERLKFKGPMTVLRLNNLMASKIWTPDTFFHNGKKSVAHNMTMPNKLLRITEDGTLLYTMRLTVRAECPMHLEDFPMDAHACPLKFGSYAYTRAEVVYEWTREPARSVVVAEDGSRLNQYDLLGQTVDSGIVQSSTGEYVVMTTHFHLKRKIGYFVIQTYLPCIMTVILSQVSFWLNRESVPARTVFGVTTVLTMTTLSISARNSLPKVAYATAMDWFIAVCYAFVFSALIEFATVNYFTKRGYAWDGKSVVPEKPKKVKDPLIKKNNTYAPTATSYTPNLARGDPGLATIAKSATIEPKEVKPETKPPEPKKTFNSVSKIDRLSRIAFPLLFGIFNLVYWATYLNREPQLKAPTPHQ", "T1 sequence (P47870 25-512 limits assumed)": "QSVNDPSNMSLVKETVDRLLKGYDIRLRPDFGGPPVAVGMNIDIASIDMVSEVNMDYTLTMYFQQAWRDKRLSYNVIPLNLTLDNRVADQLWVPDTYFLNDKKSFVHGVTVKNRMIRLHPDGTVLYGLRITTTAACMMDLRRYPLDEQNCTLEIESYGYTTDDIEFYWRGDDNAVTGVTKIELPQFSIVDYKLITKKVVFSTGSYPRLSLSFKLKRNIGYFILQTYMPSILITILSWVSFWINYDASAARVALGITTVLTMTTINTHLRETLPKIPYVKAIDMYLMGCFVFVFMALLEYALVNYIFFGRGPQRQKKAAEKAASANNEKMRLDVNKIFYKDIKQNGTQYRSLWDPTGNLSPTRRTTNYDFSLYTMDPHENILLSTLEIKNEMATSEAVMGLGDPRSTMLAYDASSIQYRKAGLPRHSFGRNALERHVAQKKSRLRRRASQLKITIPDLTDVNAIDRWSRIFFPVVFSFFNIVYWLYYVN", "T1 sequence (P18507 40-475)": "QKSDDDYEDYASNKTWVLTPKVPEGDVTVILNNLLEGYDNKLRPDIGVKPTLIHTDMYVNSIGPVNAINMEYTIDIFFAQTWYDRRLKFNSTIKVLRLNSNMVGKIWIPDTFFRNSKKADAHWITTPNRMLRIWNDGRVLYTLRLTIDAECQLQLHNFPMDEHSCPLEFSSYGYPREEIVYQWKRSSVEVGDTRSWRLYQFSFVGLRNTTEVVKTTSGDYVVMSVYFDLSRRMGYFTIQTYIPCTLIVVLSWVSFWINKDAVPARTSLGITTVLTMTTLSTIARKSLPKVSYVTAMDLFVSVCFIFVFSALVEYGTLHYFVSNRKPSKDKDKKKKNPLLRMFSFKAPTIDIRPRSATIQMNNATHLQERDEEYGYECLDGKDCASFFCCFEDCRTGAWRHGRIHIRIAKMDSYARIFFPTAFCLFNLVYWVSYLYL", "assay": "Potentiation of GABA-evoked currents, whole-cell patch-clamp in HEK293 cells transiently expressing recombinant GABAARs", "assay_type": "cell-based", "conditions": "α1β2γ2", "description": "(§1) The affinities of drugs for α1, α2, α3 and α5 subunits were studied in the HEK293 cells (from FuHeng Biology, Shanghai, China) transiently expressing recombinant GABAARs (α1β2γ2, α2β3γ2, α3β3γ2 and α5β2γ2) as described previously. Briefly, the HEK293 cells were cultured in MEM medium supplemented with 10% FBS (fetal bovine serum, Gibico), 1% L-glutamine (Gibco) and 1% mycillin (Gibco). Before transfection, the cells were subcultured onto a 3.5cm dish at the ratio of 1:2. Then, the plasmids of α1/α2/α3/α5 (Origene), β2/β3 (Origene) and γ2 (Shanghai Genechem Co.,Ltd ) (5μg total DNA, ratio 1:1:2) were transfected using Fugene®HD transfection reagent (Promega). The γ2 subunit contained GFP from IRES (internal ribosomal entry site) and was used as a marker of the successful transfection. Cells were used for electrophysiology recording 18-36 hours after transfection.\n(§2) Electrophysiology recordings from HEK293 cells were performed as described previously. Briefly, whole-cell patch-clamp recordings of GABA-evoked currents were made at 30 °C with the holding potential of -60 mV. The internal solution (solution in recording electrodes) contained (in mM): 120 CsCl, 10 EGTA, 10 HEPES, 4 MgCl2, 0.5 GTP, 2 ATP and pH was adjusted to 7.4 with CsOH and the external solution contained (in mM): 150 NaCl, 10 KCl, 2 CaCl2, 1 MgCl, 10 HEPES, 10 Glucose and pH was adjusted to 7.4 with NaOH. ACSF was bubbled continuously with carbogen (95%O2 and 5%CO2). For the recording of GABA-evoked currents, the slides were transferred to a recording chamber, which was perfused with ACSF at a rate of 4 ml/min. The cells were viewed under upright microscopy (Olympus), and GFP-positive cells were selected to record the currents. The interval time between each different dose of GABA was controlled, 3 to 5 minutes to avoid the desensitization of GABAARs."}, "[2]": {"molecular_target": "T2, α2β3γ2 GABAARs (Homo sapiens, UniProt P18507+P28472+P47869)", "T2 construct": "Shanghai Genechem Co.,Ltd (γ2 plasmid); host or cells: HEK293", "T2 sequence (P47869 29-451)": "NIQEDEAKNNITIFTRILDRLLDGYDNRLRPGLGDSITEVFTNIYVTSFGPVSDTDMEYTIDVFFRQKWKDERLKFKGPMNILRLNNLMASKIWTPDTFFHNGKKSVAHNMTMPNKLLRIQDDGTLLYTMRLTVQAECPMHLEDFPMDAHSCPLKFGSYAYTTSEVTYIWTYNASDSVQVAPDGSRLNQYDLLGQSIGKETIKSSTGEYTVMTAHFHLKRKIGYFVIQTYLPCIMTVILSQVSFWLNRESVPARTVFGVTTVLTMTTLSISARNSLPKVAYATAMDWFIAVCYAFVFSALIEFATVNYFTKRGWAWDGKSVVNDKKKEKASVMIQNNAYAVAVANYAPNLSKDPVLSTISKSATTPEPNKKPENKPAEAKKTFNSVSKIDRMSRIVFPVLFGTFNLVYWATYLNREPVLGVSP", "T2 sequence (P28472 26-473)": "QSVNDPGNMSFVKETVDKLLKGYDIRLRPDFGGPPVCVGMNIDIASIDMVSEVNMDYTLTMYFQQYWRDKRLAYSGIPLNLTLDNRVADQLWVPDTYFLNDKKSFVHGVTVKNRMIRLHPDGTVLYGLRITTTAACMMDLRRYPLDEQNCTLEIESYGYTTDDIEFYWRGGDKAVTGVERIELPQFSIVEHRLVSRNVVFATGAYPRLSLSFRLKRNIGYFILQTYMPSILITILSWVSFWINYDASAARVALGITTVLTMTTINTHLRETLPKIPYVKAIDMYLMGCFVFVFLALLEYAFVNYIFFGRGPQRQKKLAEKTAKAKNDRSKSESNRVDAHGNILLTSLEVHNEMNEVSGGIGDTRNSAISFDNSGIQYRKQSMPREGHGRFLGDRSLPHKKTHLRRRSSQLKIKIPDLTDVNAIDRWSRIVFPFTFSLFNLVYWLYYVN", "T2 sequence (P18507 40-475)": "as the sequence (P18507 40-475) above", "assay": "Potentiation of GABA-evoked currents, whole-cell patch-clamp in HEK293 cells transiently expressing recombinant GABAARs", "assay_type": "cell-based", "conditions": "α2β3γ2", "description": "as §1, §2"}, "[3]": {"molecular_target": "T3, α3β3γ2 GABAARs (Homo sapiens, UniProt P18507+P28472+P34903)", "T3 construct": "Shanghai Genechem Co.,Ltd (γ2 plasmid); host or cells: HEK293", "T3 sequence (P34903 29-492)": "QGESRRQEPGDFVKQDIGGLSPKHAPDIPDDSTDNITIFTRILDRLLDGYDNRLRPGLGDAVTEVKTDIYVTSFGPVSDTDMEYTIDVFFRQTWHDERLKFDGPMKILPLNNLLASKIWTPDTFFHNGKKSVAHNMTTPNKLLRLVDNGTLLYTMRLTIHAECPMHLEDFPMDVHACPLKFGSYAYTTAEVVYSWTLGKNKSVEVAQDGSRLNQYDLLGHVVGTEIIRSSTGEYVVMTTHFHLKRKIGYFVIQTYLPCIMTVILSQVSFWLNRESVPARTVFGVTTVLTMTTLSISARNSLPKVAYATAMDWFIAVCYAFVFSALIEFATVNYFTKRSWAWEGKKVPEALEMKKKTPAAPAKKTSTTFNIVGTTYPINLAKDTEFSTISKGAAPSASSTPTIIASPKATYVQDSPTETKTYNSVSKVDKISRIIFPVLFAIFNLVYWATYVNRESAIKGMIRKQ", "T3 sequence (P28472 26-473)": "as the sequence (P28472 26-473) above", "T3 sequence (P18507 40-475)": "as the sequence (P18507 40-475) above", "assay": "Potentiation of GABA-evoked currents, whole-cell patch-clamp in HEK293 cells transiently expressing recombinant GABAARs", "assay_type": "cell-based", "conditions": "α3β3γ2", "description": "as §1, §2"}, "[4]": {"system": "α5β3γ2 GABAARs", "assay": "Potentiation of GABA-evoked currents, whole-cell patch-clamp in HEK293 cells transiently expressing recombinant GABAARs", "assay_type": "cell-based"}, "[5]": {"system": "SNL-induced mechanical hyperalgesia", "assay": "SNL-induced mechanical hyperalgesia, paw withdrawal threshold", "assay_type": "in vivo, rat", "conditions": "SNL rats, ZL006-05 60 mg/kg/d, i.g., ×11 d"}, "[6]": {"system": "laminae I excitatory neurons in the SDH", "assay": "mIPSCs/mEPSCs recordings from acute spinal slices of chronically treated rats", "assay_type": "in vivo, rat", "conditions": "rats, ZL006-05 0.3 mg/d intrathecal infusion ×11 d", "excerpt": "Osmotic minipumps (models 1004 for mouse and 2ML4 for rat; Alzet) and intrathecal cannulas (0.61 mm outer diameter and 0.28 mm inner diameter for mouse, 0.99 mm outer diameter and 0.58 mm inner diameter for rat) were filled with a solution of PBS. Cannulas were inserted into the subarachnoid space through the space between the L5 and L6 vertebrae and the tip of the catheter was implanted at the L5 spinal segmental level.\nAll solutions were bubbled with 95% O2 -5% CO2.\nFor mPSCs measurements, whole-cell recordings were made from putative excitatory neurons in superficial dorsal horn using low-resistance pipettes (4-8 MΩ). Before mPSCs measurements, excitatory neurons were distinguished from inhibitory neurons by firing pattern analysis according to the established relationship between neuronal firing pattern and its neurotransmitter phenotype, [32]-[34] For mEPSCs measurement, the membrane potential was held at -60 mV. […] Tetrodotoxin (0.5 μM) and bicuculline (20 μM) were added to block action potentials and GABAA receptor-mediated currents respectively. For mIPSCs measurement, the membrane potential was held at -70 mV, microelectrodes were filled with internal pipette solution containing CsCl 140, HEPES 10.0, MgATP 4.0, NaGTP 3.0, EGTA 1.0, MgCl2 1.0, CaCl2 0.3 (in mM). […]. […] Each recording lasts more than 5 min. Data were analyzed using Mini software. Up to 120 events from each neuron were selected at a fixed sampling interval to generate cumulative probability."}}, "note": "Entries after “also recorded” stand apart in the source; their conditions may differ."}
{"smiles": "CC1(C)C2CCC1(C)C(OC(=O)c1ccc(NCc3cc(Cl)cc(Cl)c3O)cc1O)C2", "note": "(stereo not shown) [ZL006-05]", "values": [{"measurement": "Effect on GABA-evoked currents of α1-containing GABAAR (in words)", "setting": "[1]", "value": "does not potentiate α1GABAAR"}, {"measurement": "Effect on α2-containing GABAAR (in words)", "setting": "[2]", "value": "very high affinity to α2-containing GABAAR; also recorded: very high efficacy and potency on α2GABAARs"}, {"measurement": "Effect on α3GABAAR (in words)", "setting": "[3]", "value": "low efficacy on α3GABAAR"}, {"measurement": "Effect on α5GABAAR (in words)", "setting": "[4]", "value": "low efficacy on α3GABAAR and α5GABAAR"}, {"measurement": "Analgesic tolerance, mechanical hyperalgesia", "setting": "[5]", "value": "did not produce analgesic tolerance"}, {"measurement": "mEPSCs", "setting": "[6]", "value": "without affecting mEPSCs"}, {"measurement": "mIPSCs", "setting": "[6]", "value": "significantly increased mIPSCs amplitude"}]}
